{"source": "patent US12004545B2", "about": "“Infant nutrition delivering metabolic benefits” (SOCIÉTÉ DES PRODUITS NESTLÉ S.A., priority 2016, dated 2024)", "origin": "cited, not measured here", "settings": "value used in the GL calculation"}
{"smiles": "OC[C@H]1O[C@@H](O[C@H]2[C@H](O)[C@@H](O)C(O)O[C@@H]2CO)[C@H](O)[C@@H](O)[C@H]1O", "note": "(some centres unmarked) [lactose]", "values": [{"measurement": "GI of ingredient (available CHO)", "value": 46}]}
{"smiles": "OC[C@H]1O[C@@](CO)(O[C@H]2O[C@H](CO)[C@@H](O)[C@H](O)[C@H]2O)[C@@H](O)[C@@H]1O", "note": "[sucrose]", "values": [{"measurement": "GI of ingredient (available CHO)", "value": 68}]}
